Test results published in patent US11220503B2, “Phthalazine derivatives, preparation method, pharmaceutical composition and usage thereof” (Shanghai SIMR Biotech Co., Ltd., priority 2015, dated 2022).

Columns and labels:
α5β3γ2 receptor [1] = target: T1, α5β3γ2 receptor (Homo sapiens, UniProt P18507+P31644); assay: Cell level screening: whole cell patch clamp, inverse agonist efficacy; format: cell-based; details: for inhibition at 0.1 µM: HEK293, compound 100 nM, GABA 0.05-0.1 μM, HEK293 α5β3γ2, clamped at −60 mV, (Ipost-Ipre)*100/Ipre, read-out: inverse agonism efficacy(%); for inverse agonism efficacy of the compound/α5IA inverse agonism efficacy: ratio to α5IA, compound 100 nM
T1 construct: expressed in transfected cells; host or cells: HEK-293 (stably transfected)
Experimental: (§1) The inventors used electrophysiological methods to assay the inverse agonist efficacy of the substance to be tested. The detailed procedures are as follows: (1) Different subunits of GABAA receptors were expressed in human embryonic kidney cells 293 (HEK293). The cells were cultured in a culture medium and used as a cell model for screening potential analgesics. The α, β and γ subunits are necessary to form complete functional GABAA receptors. In this example, the inventor has established the following cell model: (a) α5 subunit (protein sequence is GenBank accession number: NP_001158509), β3 subunit (protein sequence is GenBank accession number: NP_068712) and γ2 subunit (protein sequence is GenBank accession number: NP_944494) were expressed in HEK-293 cell lines at the same time, which formed the complete functional GABAA receptors. (2) Cells were stably transfected HEK-293 cells expressing α5β3γ2 receptor, which were labeled by green fluorescent protein (GFP). Cells were grown in 10 cm dishes. The cells were passaged after reaching 80-90% confluence. During passaging, the culture medium was removed and discarded, 3 mL DMEM medium (Gibco™) was added to the dishes, the dishes were shaken slightly, and DMEM was removed and discarded. 3 mL Trypsin (Trypsin-EDTA 0.05%, Gibco™) was added and cells were digested at 37° C. for 3 minutes. Then 3 mL complete growth medium (DMEM+10% horse serum (Gibco™)) was added and the cells at the bottom of the culture dishes were dispersed. The cell suspension were transferred to a 15 mL centrifugal tube (Corning®) and then centrifuged at 200 g for 3 minutes. The supernatant was discarded, 4 mL complete growth medium was added, and the cells were resuspended by gently blowing. The cell suspension was diluted by 1:5 or 1:10 for subculturing. The cell suspension was diluted by 1:12 for electrophysiology experiment, which are added to the 24 well plate (Corning®) which has a glass slide pre-treated with poly-D-lysine. The cells were adhered to the slide before the experiment was conducted. The cells were maintained in culture for no more than 24 hours before use. (3) Compound concentration: for screening, all compounds were diluted to a final concentration of 100 nM. GABA was diluted at the concentration of 0.05-0.1 μM. The compounds were at the concentration of 1 nM, 10 nM, 50 nM, 100 nM and 1000 nM in dose-inverse agonism efficacy (%) experiment. The whole cell patch clamp technique was used in electrophysiology experiments. The extracellular solution (ECS) contained: 150 mM NaCl, 5 mM KCl, 2.5 mM CaCl2, 1 mM MgCl2, 10 mM HEPES and 10 mM glucose (pH 7.4); Patch electrodes were filled with an intracellular solution containing: 140 mM KCl, 5 mM EGTA, 10 mM HEPES (adjusted to pH 7.4 with KOH and to 320-330 mOsm with water). The currents were recorded by an EPC-10 amplifier and the PatchMaster software (HEKA). Patch electrodes with a resistance of 5-6 MΩ were pulled from borosilicate glass (Sutter). The diluted compounds were perfused by OCTAFLOWII system. GFP positive and independently growing cells were selected for recording. During recording, the membrane voltage was clamped at −60 mV. During experiment, the cells were firstly perfused with ECS for 20 seconds. When the baseline reached to a stable state, cells were then perfused with GABA solution. Then the current induced by GABA can be detected. After about 20-40 seconds, the current was stable. ECS was switched to compounds solution and the effects of the compounds were detected. At last, the perfusion solution was switched to ECS. The experiment was finished when the post-baseline returned to the pre-baseline before compounds perfusion. Only the data whose pre-baseline and post-baseline are at almost the same level were used for analysis. GABA was diluted at the concentration of 0.05-0.1 μM in ECS. Then, compounds were diluted at the desired concentration in GABA ECS. (4) Currents were analyzed with the PatchMaster (HEKA) software. […]

α5β3γ2 receptor [2] = target: T1, α5β3γ2 receptor; assay: Supplementary data for cell level screening: new electrophysiology method (I. Lecker et al); format: cell-based; details: for Inverse agonism efficacy(%): new method, CsCl intracellular solution, GABA 0.1˜0.3 CM, other procedures as previous method; for inverse agonism efficacy of the compound/α5IA inverse agonism efficacy: ratio to the α5IA reference run above in the table (r4 or r29)
Experimental: as §1, with “GABA was diluted at the concentration of 0.05-0.1 μM.” left out, “[…],” for “Patch electrodes were filled with an intracellular solution containing: 140 mM KCl,”, “([…]” for “(adjusted to pH 7.4 with KOH and to 320-330 mOsm with”, “GABA was diluted at the concentration of 0.05-0.1 μM in ECS.” left out, “software. The GABA currents before (Ipre) and after (Ipost) compounds perfusion were recorded respectively. The efficacies of compounds were calculated by the following equation: inverse agonism efficacy=(Ipost-Ipre)*100/Ipre. N indicates experiment numbers.” for “software.”

T1 sequence (P31644 32-462): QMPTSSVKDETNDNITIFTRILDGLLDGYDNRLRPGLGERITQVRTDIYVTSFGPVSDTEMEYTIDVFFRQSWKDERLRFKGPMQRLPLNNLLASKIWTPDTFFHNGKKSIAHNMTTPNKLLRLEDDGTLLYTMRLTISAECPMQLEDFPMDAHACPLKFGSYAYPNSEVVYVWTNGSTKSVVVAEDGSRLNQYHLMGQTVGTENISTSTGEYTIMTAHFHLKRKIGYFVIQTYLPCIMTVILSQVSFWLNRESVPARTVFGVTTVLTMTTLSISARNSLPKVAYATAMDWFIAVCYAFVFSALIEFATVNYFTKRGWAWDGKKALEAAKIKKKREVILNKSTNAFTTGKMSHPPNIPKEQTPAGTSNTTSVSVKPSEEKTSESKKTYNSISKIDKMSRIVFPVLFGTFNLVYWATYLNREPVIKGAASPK
T1 sequence (P28472 26-473 isoform P28472-2 partner limits assumed): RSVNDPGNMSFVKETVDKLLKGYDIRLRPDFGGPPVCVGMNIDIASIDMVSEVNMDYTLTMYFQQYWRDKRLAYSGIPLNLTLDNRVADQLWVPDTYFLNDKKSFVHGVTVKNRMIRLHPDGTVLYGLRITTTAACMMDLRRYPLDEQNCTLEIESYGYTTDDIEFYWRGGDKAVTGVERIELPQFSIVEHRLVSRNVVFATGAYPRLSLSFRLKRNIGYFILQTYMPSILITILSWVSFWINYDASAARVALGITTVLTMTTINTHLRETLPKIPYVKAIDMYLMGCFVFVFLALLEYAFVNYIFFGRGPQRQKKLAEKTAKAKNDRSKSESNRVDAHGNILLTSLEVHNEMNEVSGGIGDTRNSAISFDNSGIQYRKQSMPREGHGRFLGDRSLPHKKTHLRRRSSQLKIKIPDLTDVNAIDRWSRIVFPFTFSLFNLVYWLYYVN
T1 sequence (P18507 40-475): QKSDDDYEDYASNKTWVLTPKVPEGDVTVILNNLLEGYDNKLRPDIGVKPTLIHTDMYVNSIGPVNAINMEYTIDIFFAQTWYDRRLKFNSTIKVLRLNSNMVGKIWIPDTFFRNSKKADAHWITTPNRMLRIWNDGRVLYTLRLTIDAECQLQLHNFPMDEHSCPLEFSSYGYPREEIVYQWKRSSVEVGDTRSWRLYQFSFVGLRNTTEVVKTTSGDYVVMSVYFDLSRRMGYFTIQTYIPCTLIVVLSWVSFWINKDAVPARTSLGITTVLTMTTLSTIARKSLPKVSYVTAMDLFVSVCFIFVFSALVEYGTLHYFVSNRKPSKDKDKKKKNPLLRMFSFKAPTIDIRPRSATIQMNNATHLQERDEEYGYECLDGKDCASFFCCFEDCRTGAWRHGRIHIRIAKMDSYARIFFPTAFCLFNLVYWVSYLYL

SMILES | inhibition at 0.1 µM (α5β3γ2 receptor [1]) | inverse agonism efficacy of the compound/α5IA inverse agonism efficacy (α5β3γ2 receptor [1]) | Inverse agonism efficacy(%) (α5β3γ2 receptor [2]) | inverse agonism efficacy of the compound/α5IA inverse agonism efficacy (α5β3γ2 receptor [2])
Cc1cc(-c2nnc3c4ccccc4c(OCc4ccc(C(=O)NN5CCOCC5)cn4)nn23)no1 [Compound 01, 6-((3-(5-methylisoxazol-3-yl)-[1,2,4]triazolo[3,4-a]phthalazin-6-yloxy)methyl)-N-morpholinonicotinamide] | 58% | 2.572 | −18.67% | 1.075
Cc1cc(-c2nnc3c4ccccc4c(OCc4ccc(C(=O)N[C@H](C)CO)cn4)nn23)no1 [Compound 02, (R)—N-(1-hydroxypropan-2-yl)-6-((3-(5-methylisoxazol-3-yl)-[1,2,4]triazolo[3,4-a]phthalazin-6-yloxy)methyl)nicotinamide] | 52.2% | 2.313 | −21.33% | 1.229
Cc1cc(-c2nnc3c4ccccc4c(OCc4ccc(C(=O)N[C@H]5CCC[C@@H]5O)cn4)nn23)no1 [Compound 03, N-((1S,2S)-2-hydroxycyclopentyl)-6-(((3-(5-methylisoxazol-3-yl)-[1,2,4]triazolo[3,4-a]phthalazin-6-yl)oxy)methyl)nicotinamide] | 41.3% | 1.832 | −29.33% | 1.689
CC(C)NC(=O)c1ccc(COc2nn3c(-c4cc(CO)on4)nnc3c3ccccc23)nc1 [Compound 38, 6-(((3-(5-(hydroxymethyl)isoxazol-3-yl)-[1,2,4]triazolo[3,4-a]phthalazin-6-yl)oxy)methyl)-N-iso propylnicotinamide] | 40% | 1.774 | −52.5% | 3.023
O=C(NCCO)c1ccc(COc2nn3c(-c4cc(CO)on4)nnc3c3ccccc23)nc1 [Compound 39, N-(2-hydroxyethyl)-6-(((3-(5-(hydroxymethyl)isoxazol-3-yl)-[1,2,4]triazolo[3,4-a]phthalazin-6-yl)oxy)methyl)nicotinamide] | 49% | 2.174 | −26% | 1.497
O=C(c1ccc(COc2nn3c(-c4cc(CO)on4)nnc3c3ccccc23)nc1)N1CCS(=O)(=O)CC1 [Compound 40, (1,1-dioxidothiomorpholino)(6-(((3-(5-(hydroxymethyl)isoxazol-3-yl)-[1,2,4]triazolo[3,4-a]phthalazin-6-yl)oxy)methyl)pyridin-3-yl)methanone] | 29% | 1.286 | −25.5% | 1.468
O=C(NC1CCOCC1)c1ccc(COc2nn3c(-c4cc(CO)on4)nnc3c3ccccc23)nc1 [Compound 44, 6-(((3-(5-(hydroxymethyl)isoxazol-3-yl)-[1,2,4]triazolo[3,4-a]phthalazin-6-yl)oxy)methyl)-N-(tetrahydro-2H-pyran-4-yl)nicotinamide] | – | – | −20.8% | 1.196
O=C(c1ccc(COc2nn3c(-c4cc(CO)on4)nnc3c3ccccc23)nc1)N1CCC1 [Compound 49, azetidin-1-yl-(6-(((3-(5-(hydroxymethyl)isoxazol-3-yl)-[1,2,4]triazolo[3,4-a]phthalazin-6-yl)oxy)methyl)pyridin-3-yl)methanone] | – | – | −22.2% | 1.278
CS(=O)(=O)NNC(=O)c1ccc(COc2nn3c(-c4cc(CO)on4)nnc3c3ccccc23)nc1 [Compound 53, N′-(6-(((3-(5-(hydroxymethyl)isoxazol-3-yl)-[1,2,4]triazolo[3,4-a]phthalazin-6-yl)oxy)methyl)nicotinoyl)methanesulfonohydrazide] | – | – | −22.8% | 1.313
N#Cc1cc(C(=O)N[C@H]2CCC[C@@H]2O)ccc1COc1nn2c(-c3cc(CO)on3)nnc2c2ccccc12 [Compound 56, 3-cyano-N-((1S,2S)-2-hydroxycyclopentyl)-4-(((3-(5-(hydroxymethyl)isoxazol-3-yl)-[1,2,4]triazolo[3,4-a]phthalazin-6-yl)oxy)methyl)benzamide] | – | – | −27.6% | 1.589
